{"source": "patent US8785421B1", "about": "“Use of vitamin D in dairy mastitis treatment” (The United States of America as represented by the …, priority 2011, dated 2014)", "key": {"[1]": {"test_system": "Cyp24A1", "experiment": "Cyp24A1 gene expression in milk cells after intramammary infusion into an infected mammary quarter", "format": "in vivo", "details": "single 100 μg infusion into infected mammary quarter of two cows; compared to cells obtained prior to infusion"}, "[2]": {"test_system": "S. uberis", "experiment": "Experimental S. uberis intramammary infection (mastitis) treated by intramammary infusion after each milking", "format": "in vivo, cows", "details": "for reduction in bacterial load: 100 μg in 10-ml FBS after each milking, vs FBS sham control", "description": "Seven of the animals were treated after each milking with 100 μg of 25(OH)D3 in 10-ml fetal bovine serum (FBS), the other seven were sham treated with 10-ml FBS only. […] The lower bacterial load in the 25(OH)D3 treated animals and therefore a likely reduction of pyrogens explains the reduction in fever seen in the treated group. The level of bovine serum albumin (BSA) in the milk is used as an indicator of changes in the mammary vascular permeability in the gland and typically increases with an acute infection. […] Fewer bacteria in the treated group (FIG. 1) leads to less tissue damage (FIG. 3) and leads to less pyrogens going systemic (FIG. 2). Also, after the fourth day of the infection two cows (out of 6) in the 25D3 had no infection, whereas, all six were infected at this time point in the control treated group."}, "[3]": {"test_system": "Pseudomonas", "experiment": "Mastitis-infected cow with chronic Pseudomonas infection treated by intramammary infusion", "format": "in vivo", "details": "100 ug infusions twice a day in the infected gland; after 2 treatments; from thousands of bacteria per ml; detection limit 100 cfu/ml; FIG. 4", "description": "After weeks of various conventional treatment the cow was treated with 25(OH)D3 as described in Example 1, with 100 ug infusions twice a day in the infected gland. The treatment of this animal with 25(OH)D3 caused the bacterial load to go from thousands of bacteria per ml to at or below our detection limit of 100 cfu/ml after 2 treatments (FIG. 4)."}}}
{"smiles": "C=C1CC[C@H](O)C/C1=C/C=C1\\CCC[C@]2(C)[C@@H]([C@H](C)CCCC(C)(C)O)CC[C@@H]12", "note": "[25(OH)D3, 25-hydroxy vitamin D3]", "values": [{"measurement": "gene expression of Cyp24A1", "setting": "[1]", "result": "increased"}, {"measurement": "reduction in bacterial load", "setting": "[2]; day 2 of the experiment", "result": "2-4 log"}, {"measurement": "reduction in bacterial load", "setting": "[2]; days 4 and 5 post infection", "result": "1.5-2 log"}, {"measurement": "cows with no infection", "setting": "[2]; after the fourth day of the infection, all six control cows were infected", "result": "two"}, {"measurement": "level of bovine serum albumin (BSA) in the milk", "setting": "[2]; indicator of mammary vascular permeability, treated vs control, FIG. 3", "result": "not statistically significant"}, {"measurement": "bacterial counts in infected glands", "setting": "[2]; repeated measures analysis, significant difference (p<0.05) at day 2 AM and day 2 PM, FIG. 1", "result": "significantly (p<0.05) reduced"}, {"measurement": "rectal temperatures", "setting": "[2]; treated vs control cows at two time points (p<0.05), FIG. 2", "result": "significantly lower"}, {"measurement": "bacterial load", "setting": "[3]", "result": "≤ 100", "unit": "cfu/ml"}]}
